By Ki is commonly meant the dissociation constant of the complex between target and ligand, obtained from inhibition or displacement. A high value points to weaker binding. Broadly, the inhibition is the change of the read-out against control, counted positive when it falls.

In test [1] the target is T1, Adenosine receptor A2b (Homo sapiens, UniProt P29275).
T1 sequence (P29275 whole entry): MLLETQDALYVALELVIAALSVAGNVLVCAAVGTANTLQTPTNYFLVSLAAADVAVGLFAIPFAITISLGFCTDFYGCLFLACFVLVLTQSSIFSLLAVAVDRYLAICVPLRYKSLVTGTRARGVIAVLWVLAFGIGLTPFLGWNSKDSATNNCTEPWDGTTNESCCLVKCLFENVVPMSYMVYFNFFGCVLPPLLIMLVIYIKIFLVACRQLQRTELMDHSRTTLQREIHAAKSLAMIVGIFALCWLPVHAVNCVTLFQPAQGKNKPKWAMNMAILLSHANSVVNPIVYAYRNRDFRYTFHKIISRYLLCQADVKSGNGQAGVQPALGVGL
Description: Binding affinity to recombinant human adenosine A2B receptor

The target in test [2] is T2, Adenosine receptor A2b (Homo sapiens) (UniProt P29275).
T2 sequence (whole entry): T1 sequence (P29275 whole entry)
In words: Displacement of [3H]DPCPX from recombinant human adenosine A2B receptor expressed in HEK293 cells at 0.1 uM. The class given is cell-based. A general note: In a radioligand displacement assay an active substance lowers the binding of a labelled ligand.

The target in test [3] is Adenosine receptor A2a (Homo sapiens, UniProt P29274). The test can be described thus: Displacement of [3H]ZM-241385 from recombinant human adenosine A2A receptor expressed in HeLa cells at 0.1 uM.
Test [4] addresses T2, Adenosine receptor A2b (Homo sapiens). In words: Displacement of [3H]DPCPX from recombinant human adenosine A2B receptor expressed in HEK293 cells at 0.01 uM.

Chain of Adenosine receptor A2a (P29274 whole entry): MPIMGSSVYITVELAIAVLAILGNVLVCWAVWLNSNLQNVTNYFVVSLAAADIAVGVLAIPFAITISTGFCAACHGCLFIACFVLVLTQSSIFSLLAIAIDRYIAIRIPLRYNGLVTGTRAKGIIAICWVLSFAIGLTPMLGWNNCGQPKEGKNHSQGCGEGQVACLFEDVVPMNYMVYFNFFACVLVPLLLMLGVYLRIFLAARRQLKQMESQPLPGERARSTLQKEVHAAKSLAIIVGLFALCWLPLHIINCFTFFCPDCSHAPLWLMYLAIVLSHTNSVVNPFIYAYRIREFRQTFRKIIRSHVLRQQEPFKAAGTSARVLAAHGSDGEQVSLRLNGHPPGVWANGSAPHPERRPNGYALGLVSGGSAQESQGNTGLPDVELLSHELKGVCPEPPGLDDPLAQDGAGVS

On to `CCOC(=O)COc1ccc(-c2cc3c([nH]2)c(=O)n(C)c(=O)n3C)c(OC)c1`, for which, in test [1], affinity was put at a Ki of 2190 nM. Moreover, the results for the inhibition in test [2] and in test [3] were 10% and 11%, respectively.

Regarding `CCCn1c(=O)c2[nH]c(-c3ccc(OCC(=O)Nc4ccc(C(C)=O)cc4)cc3)cc2n(CCC)c1=O`, in test [1], the Ki was 20 nM. Also, the values for the inhibition in test [2], in test [3] and in test [4] were 62%, 15% and 24%, respectively.

Take `CCCn1c(=O)c2[nH]c(-c3ccc(OCC(=O)Nc4ccc(CC(=O)OCC)cc4)cc3)cc2n(C)c1=O`: the affinity in test [1], expressed as Ki, was 132 nM. Besides, the inhibition in test [2] was found to be 35%; in test [3], 0%; in test [4] it was 10%.

In test [1], `CCCn1c(=O)c2[nH]c(-c3ccc(OCC(=O)Nc4ccc(S(N)(=O)=O)cc4)cc3)cc2n(CCC)c1=O` showed a Ki of 200 nM. Moreover, the figures for the inhibition in test [2], in test [3] and in test [4] were 53%, 37% and 10%, respectively.

With `CCCn1c(=O)c2[nH]c(-c3ccc(OCC(=O)Nc4ccc(C)cc4)cc3)cc2n(CCC)c1=O`, the Ki in test [1] is 14.1 nM. Besides, the inhibition in test [2] amounted to 81%; in test [3], 44%; in test [4], 27%.

Take `CCCn1c(=O)c2[nH]c(-c3ccc(OCC(=O)Nc4ccc(I)cc4)cc3)cc2n(C)c1=O`: the affinity in test [1] corresponds to a Ki of 5.89 nM. Further, the inhibition in test [2] is 97%; in test [3], 24%; in test [4] it was 51%.

With `CC(Oc1ccc(-c2cc3c([nH]2)c(=O)n(C)c(=O)n3C)cc1)C(=O)Nc1ccc(F)cc1` (stereo not drawn), in test [1], the Ki was 3.89 nM. The inhibition in test [2] turned out to be 99%; in test [3], 70%; in test [4], 76%.

Consider `CCOC(=O)c1ccc(NC(=O)COc2ccc(-c3cc4c([nH]3)c(=O)n(C)c(=O)n4C)cc2OC)cc1`, for which the figures for the inhibition in test [2], in test [3] and in test [4] were 47%, 0% and 10%, respectively.

As to `CCCn1c(=O)c2[nH]c(-c3ccc(OCC(=O)Nc4cc(C)ccn4)cc3)cc2n(CCC)c1=O`, the inhibition in test [2] came to 60%; in test [3], 34%; in test [4], 25%.

`COc1cc(OCC(=O)O)ccc1-c1cc2c([nH]1)c(=O)n(C)c(=O)n2C` gave a Ki in test [1] of 1550 nM. Further, the inhibition stood at 3% in test [2] and 1% in test [3].

For the compound `CCCn1c(=O)c2[nH]c(-c3ccc(OCC(=O)Nc4ccccc4)cc3OC)cc2n(CCC)c1=O`, the inhibition in test [2] is 17%; in test [3], 35%; in test [4], 3%.

On to `COCCCn1c(=O)c2[nH]c(-c3ccc(OCC(=O)Nc4ccc(F)cc4)cc3)cc2n(CCCOC)c1=O`, for which the inhibition in test [2] was 68%; in test [3] it was 20%; in test [4] it was 24%.

Take `CCCn1c(=O)c2[nH]c(-c3ccc(OCC(=O)Nc4ccc(Br)cc4)cc3Cl)cc2n(CCC)c1=O`: the inhibition in test [2] is 79%; in test [3], 31%; in test [4] it was 17%.

On to `CCCn1c(=O)c2[nH]c(-c3ccc(OCC(=O)Nc4cccc(C)n4)cc3)cc2n(CCC)c1=O`, for which the inhibition in test [2] worked out at 68%; in test [3], 45%; in test [4] it was 20%.

In turn, `CCCn1c(=O)c2[nH]c(-c3ccc(OCC(=O)Nc4ccc(C(=O)c5ccccc5)cc4)cc3)cc2n(CCC)c1=O` gave an inhibitory constant (Ki) in test [1] of 77.6 nM. Moreover, the inhibition in test [2] was found to be 51%; in test [3] it was 13%; in test [4], 11%.

For `O=C(O)COc1ccc(-c2cc3c([nH]2)c(=O)n(CC(F)(F)F)c(=O)n3CC(F)(F)F)cc1`, the values for the inhibition in test [2], in test [3] and in test [4] were 22%, 19% and 16%, respectively.

On to `Cn1c(=O)c2[nH]c(-c3ccc(OCC(=O)Nc4nc5ccccc5[nH]4)cc3)cc2n(C)c1=O`, for which, in test [1], the Ki is 20 nM. In addition, the inhibition in test [2] was 80%; in test [3], 34%; in test [4] it was 24%.

In the case of `O=C(COc1ccc(-c2cc3c([nH]2)c(=O)n(CC(F)(F)F)c(=O)n3CC(F)(F)F)cc1)Nc1ccc(Br)cc1`, the inhibition in test [2] amounted to 79%; in test [3], 11%; in test [4] it was 29%.

For the compound `CCCn1c(=O)n(C)c(=O)c2[nH]c(-c3ccc(OCC(=O)NCc4ccccc4)cc3)cc21`, the inhibition in test [2] stood at 21%; in test [3], 19%; in test [4] it was 10%.

As for `CCCn1c(=O)c2[nH]c(-c3ccc(OCC(=O)Nc4cccnc4)cc3)cc2n(CCC)c1=O`, the inhibition in test [2] was 83%; in test [3] it was 48%; in test [4], 19%.

As to `CN(C(=O)COc1ccc(-c2cc3c([nH]2)c(=O)n(C)c(=O)n3C)cc1)c1ccccc1`, the inhibition turned out to be 61% in test [2], 0% in test [3] and 15% in test [4].

Take `CCCn1c(=O)c2[nH]c(-c3ccc(OCC(=O)Nc4cnccn4)cc3)cc2n(CCC)c1=O`: the inhibition in test [2] is 68%; in test [3], 34%; in test [4] it was 10%.

As to `Cn1c(=O)c2[nH]c(-c3ccc(OCC(=O)Nc4cnccn4)cc3)cc2n(C)c1=O`, the inhibition came out at 44% in test [2], 20% in test [3] and 11% in test [4].

`COCCCn1c(=O)c2[nH]c(-c3ccc(OCC(=O)Nc4ccccc4)cc3)cc2n(CCCOC)c1=O`: the inhibition in test [2] is 65%; in test [3], 28%; in test [4], 1%.

Consider `O=C(COc1ccc(-c2cc3c([nH]2)c(=O)n(CC(F)(F)F)c(=O)n3CC(F)(F)F)cc1)Nc1ccc(F)cc1`, for which the inhibition in test [2] is 68%; in test [3], 18%; in test [4], 22%.

In test [1], `CCCn1c(=O)c2[nH]c(-c3ccc(OCC(=O)NCc4ccc(Cl)cc4)cc3)cc2n(C)c1=O` had a Ki of 20.4 nM. The inhibition in test [2] amounted to 76%; in test [3], 20%; in test [4], 33%.

For the compound `CC(C)Cn1c(=O)c2[nH]c(-c3ccc(OCC(=O)Nc4ccccc4)cc3)cc2n(C)c1=O`, the inhibition in test [2] amounted to 57%; in test [3], 2%; in test [4] it was 15%.

Regarding `Cn1c(=O)c2[nH]c(-c3ccc(OCC(=O)NCc4ccncc4)cc3)cc2n(C)c1=O`, the inhibition amounted to 51% in test [2], 37% in test [3] and 5% in test [4].

Take `O=C(COc1ccc(-c2cc3c([nH]2)c(=O)n(CC(F)(F)F)c(=O)n3CC(F)(F)F)cc1)Nc1ccccc1`: the inhibition came to 57% in test [2], 4% in test [3] and 15% in test [4].

Consider `CCCn1c(=O)c2[nH]c(-c3ccc(N(C=O)CC(=O)Nc4ccccc4)cc3)cc2n(CCC)c1=O`, for which the inhibition was 46% in test [2], 61% in test [3] and 10% in test [4].

In the case of `CCCn1c(=O)c2[nH]c(-c3ccc(OC(C(=O)O)c4ccccc4)cc3)cc2n(CCC)c1=O` (stereo not drawn), the inhibition came to 47% in test [2], 5% in test [3] and 10% in test [4].

For the compound `O=C(COc1ccc(-c2cc3c([nH]2)c(=O)n(CC2CC2)c(=O)n3CC2CC2)cc1)Nc1ccc(F)cc1`, the inhibition in test [2] turned out to be 95%; in test [3], 98%; in test [4] it was 57%.

In test [1], `CC(=O)c1ccc(NC(=O)COc2ccc(-c3cc4c([nH]3)c(=O)n(C)c(=O)n4C)cc2)cc1` showed a Ki of 3.55 nM. The inhibition in test [2] was 91%; in test [3], 36%; in test [4], 65%.

Take `CCCn1c(=O)c2[nH]c(-c3ccc(OCC(=O)Nc4cc(C)cc(C)n4)cc3)cc2n(CCC)c1=O`: the inhibition in test [2] was found to be 53%; in test [3] it was 27%; in test [4], 12%.

`O=C(COc1ccc(-c2cc3c([nH]2)c(=O)n(CC2CC2)c(=O)n3CC2CC2)cc1)Nc1ccc(Br)cc1`: the inhibition in test [2] is 94%; in test [3], 89%; in test [4] it was 43%.

On to `CCCn1c(=O)c2[nH]c(-c3ccc(N(C=O)CC(=O)O)cc3)cc2n(CCC)c1=O`, for which the inhibition in test [2] stood at 40%; in test [3] it was 9%; in test [4] it was 9%.

In the case of `CCCn1c(=O)c2[nH]c(-c3ccc(OC(C)(C)C(=O)Nc4ccc(Br)cc4)cc3)cc2n(CCC)c1=O`, the values for the inhibition in test [2], in test [3] and in test [4] were 87%, 54% and 49%, respectively.

Take `CCCn1c(=O)c2[nH]c(-c3ccc(OCC(=O)Nc4ccc(F)cc4)cc3OC)cc2n(CCC)c1=O`: the inhibition in test [2] worked out at 27%; in test [3], 43%; in test [4], 16%.

With `COc1cc(-c2cc3c([nH]2)c(=O)n(C)c(=O)n3C)ccc1OCC(=O)O`, the affinity in test [1] corresponds to a Ki of 269 nM. The inhibition in test [2] is 15%; in test [3], 5%.

Turning to `CCCn1c(=O)c2[nH]c(-c3ccc(OCC(=O)NC(C(=O)O)c4ccccc4)cc3)cc2n(CCC)c1=O` (stereo not drawn), the values for the inhibition in test [2], in test [3] and in test [4] were 45%, 3% and 38%, respectively.

Take `CCCn1c(=O)c2[nH]c(-c3ccc(OCC(=O)Nc4ncccc4C)cc3)cc2n(C)c1=O`: the inhibition in test [2] turned out to be 68%; in test [3], 26%; in test [4], 25%.

The values above are taken from ChEMBL document CHEMBL1148617, “Design, synthesis, and structure-activity relationships of 1-,3-,8-, and 9-substituted-9-deazaxanthines at the human A2B adenosine receptor” (J Med Chem, 2006).
